Test results reported in publication PMC12073298, “Design, Synthesis, and Biological Evaluation of Naphthoquinone Salts as Anticancer Agents” (Molecules, 2025).

Tests used:
[1] = system: human endometrial cancer cells (HEC1A); assay: MTT cell viability assay, HEC1A cells; assay type: cell-based
Protocol: (§1) The cytotoxic effects of the synthesized salt compounds were assessed against human endometrial cancer cells (HEC1A) and normal endometrial stromal cells (MAD11) using the MTT cell viability assay. BH10 was used as the reference compound.
(§2) Reagents and equipment: phosphate-buffered saline (PBS) (Sigma Aldrich, St. Louis, MO, USA), 10× Trypsin-EDTA solution (Sigma Aldrich, 59418C), Dulbecco’s Modified Eagle’s Medium (Sigma Aldrich), foetal bovine serum (FBS), and 100× penicillin-streptomycin solution (Sigma Aldrich P4333). The MTT reagent was prepared by dissolving 5 mg/mL MTT powder in sterile PBS, followed by filtration, whereas the MTT solvent contained 4 mM HCl and 0.1% Nonidet P-40 in isopropanol. Dimethyl sulfoxide (DMSO) was also sourced from Sigma Aldrich. Absorbance measurements were acquired using Kaleido 1.0 software coupled with an EnSight™ HH3400 Multimode Plate Reader (PerkinElmer, Waltham, MA, USA). HEC-1-A endometrial cancer cells were obtained from ATCC, while MAD11 endometrial stromal cells were provided by Dr. Hui Li (University of Virginia). MAD11 cells, derived from non-cancerous donors, were immortalized via human telomerase reverse transcriptase (hTERT).
(§3) Method: The methods were adapted from Byrne et al. (2014). Cells were cultured in DMEM supplemented with 10% FBS and 1% Pen-Strep solution (100 U/mL penicillin and 0.1 mg/mL streptomycin). Upon reaching ~70% confluence, the cells were washed with sterile PBS and detached using a 1× trypsin-EDTA solution. The cells were then resuspended in culture media, counted, and seeded into sterile 96-well tissue culture plates (2500 cells per well for MAD11; 5000 cells per well for HEC-1-A). The cells were incubated at 37 °C with 5% CO2 for 24 h prior to drug treatment. Drugs were serially diluted in culture medium to final concentrations of 100, 50, 25, 12.5, 6.3, 3.1, 1.6, and 0.8 µM per well and applied in triplicate. For compounds 7a–f and 15, as their IC₅₀ values were below 0.8 µM, an additional set of three biological replicates was conducted using a lower concentration range (500, 250, 125, 63, 31, 16, 8, and 4 nM). To minimize variations due to DMSO (vehicle), both drug dilutions and control wells received the same final concentration of DMSO. After 48 h of incubation at 37 °C with 5% CO2, cell viability was assessed by adding 20 µL/well of MTT reagent for 3 h. Supernatants were aspirated, and formazan crystals were dissolved in MTT solvent before absorbance was measured at 590/620 nm using an EnSight™ HH3400 Multimode Plate Reader. Cell viability was expressed as a percentage of the vehicle (DMSO-treated) control, with results reported as mean ± SEM from three independent experiments. IC50 values were determined using GraphPad Prism 9.

[2] = system: normal endometrial stromal cells (MAD11); assay: MTT cell viability assay, MAD11 cells; assay type: cell-based, human; conditions: Homo sapiens, MAD11, 48 h, MAD11 non-cancerous cells, n = 3 biological replicates, read-out: Mean IC50 (μM) MAD11 ± SD
Protocol: as §1, §2, §3

[3] = system: human endometrial cancer cells (HEC1A); conditions: hit compound, earlier work; cited from earlier work
[4] = system: Indoleamine 2,3-dioxygenase 1 (IDO1); set-up: method as in ref 9-10 (a number printed in a supplementary file, which may have a reference list of its own: not looked up in the article's list); conditions: cited from earlier work
Hexokinase II = system: Hexokinase II; set-up: method as in ref 2-4 (a number printed in a supplementary file, which may have a reference list of its own: not looked up in the article's list); conditions: cited from earlier work
GLUT1 = system: GLUT1; set-up: method as in ref 5-6 (a number printed in a supplementary file, which may have a reference list of its own: not looked up in the article's list); conditions: cited from earlier work
[5] = system: Pyruvate Kinase M2 (PKM2); set-up: method as in ref 7-8 (a number printed in a supplementary file, which may have a reference list of its own: not looked up in the article's list); conditions: cited from earlier work
[6] = system: Survivin suppression (indirect); set-up: method as in ref 13 (a number printed in a supplementary file, which may have a reference list of its own: not looked up in the article's list); conditions: cited from earlier work
[7] = system: receptor-interacting protein kinase 2 (RIPK2); set-up: method as in ref 11-12 (a number printed in a supplementary file, which may have a reference list of its own: not looked up in the article's list); conditions: cited from earlier work
[8] = reported target as listed, test system not given, read-out: IC50 (Table S1)

## O=C1C(Cl)=C(NCCN2CCOCC2)C(=O)c2ccccc21 [BH10, reference compound]
[1]; Homo sapiens, HEC-1-A, 48 h, HEC1A cells, MTT, 48 h, n = 3 biological replicates, read-out: Mean IC50 (μM) HEC1A ± SD
  IC50: 11.8 ± 5.19 µM
[1]; IC50 value from MAD11 cells divided by the IC50 value from HEC1A cells
  Selectivity Ratio: 2.38
[2]
  IC50: 28.2 ± 12.2 µM
[3]
  selective toxicity (IC50 value in non-cancerous cells/IC50 value of cancer cells): 2.38

## CC(C)=CCC1=C(O)C(=O)c2ccccc2C1=O [Lapachol]
[4]; Table S1 comparison
  Selectivity Notes (Table S1): Limited
[4]; [8]
  IC50: 25 µM

## O=C(O)c1nn(Cc2ccc(Cl)cc2Cl)c2ccccc12 [Lonidamine]
Hexokinase II; Table S1 comparison
  Selectivity Notes (Table S1): Low
Hexokinase II; [8]
  IC50: 170 µM

## O=C(CCc1ccc(O)cc1)c1c(O)cc(O)cc1O [Phloretin]
GLUT1; Table S1 comparison
  Selectivity Notes (Table S1): Limited
GLUT1; [8]
  IC50: ~2 µM

## CC(C)=CC[C@@H](O)C1=CC(=O)c2c(O)ccc(O)c2C1=O [Shikonin]
[5]; Table S1 comparison
  Selectivity Notes (Table S1): Low
[5]; [8]
  IC50: 19.9 µM

## COCCn1c2c([n+](Cc3cnccn3)c1C)C(=O)c1ccccc1C2=O [YM155]
[6]; Table S1 comparison
  Selectivity Notes (Table S1): 18
[6]; [8]
  IC50: 0.0137 µM

## Cc1n(Cc2ccccc2)c2c([n+]1Cc1ccc(F)cc1)C(=O)c1ccccc1C2=O [cRIPGBM]
[7]; Table S1 comparison
  Selectivity Notes (Table S1): Variable, brain-specific
[7]; [8]
  IC50: 0.027 µM
